Source: US5567704A, “R-enatiomerically pure hydroxylated xanthine compounds to treat baldness” (priority 1995, dated 1996)

How the values were obtained:
stromelysin/PUMP-1 = assay: PUMP-1 activity induced by IL-1; assay type: cell-based; settings: induced by 100 U/ml of IL-1
Text: Metalloproteases mediate tissue damage such as glomerular diseases of the kidney, joint destruction in arthritis, and lung destruction in emphysema, and play a role in tumor metastases. Three examples of metalloproteases include a 92 kD type V gelatinase induced by TNF, IL-1 and PDGF plus bFGF, a 72 kD type IV collagenase that is usually constitutive and induced by TNF or IL-1, and a stromelysin/PUMP-1 induced by TNF and IL-1. The inventive compounds can inhibit TNF or IL-1 induction of the 92 kD type V gelatinase inducable metalloprotease. Moreover, CT 1501R reduced PUMP- 1 activity induced by 100 U/ml of IL-1 to 15% of its control levels. […] Accordingly, the inventive compounds prevent induction of certain metalloproteases induced by IL-1 or TNF and are not involved with constitutively produced proteases (e.g., 72 kD type IV collagenase) involved in normal tissue remodeling.

[1] = test system: lysophosphatidic acid acyl transferase (LPAAT); assay: in vitro inhibition of LPAAT in 3T3 Ras-transformed fibroblasts stimulated with IL-1β; assay type: cell-based
Description: FIG. 17 illustrates a comparison of CT1501R, its S isomer CT1501S, and PTX on in vitro inhibition of lysophosphatidic acid acyl transferase (LPAAT), an enzyme involved in second messenger signaling. […] LPAAT activity was determined in 3T3 Ras-transformed fibroblasts stimulated with IL-1β.
One in vitro assay measures inhibition of the relevant enzymes lysophosphatidic acid acyltransferase (LPAAT) and phosphatidic acid phosphoryl hydrolase (PAPH). The assay involves incubating of target cells with a primary stimulus (e.g., a variety of cytokines, growth factors, oncogene products, putative therapeutic agents, irradiation, viral infection, toxins, bacterial infection and the products thereof, and any stimulus which, if not counteracted, has a deleterious effect on the target cell) in the presence or absence of an inventive compound at varying dosage levels. Target cells include, for example, subcellular entities, such as, microsomes derived from mesenchymal and/or ectodermal cells, particularly microsomes from marrow stromal cells or human or rat mesangial cells; microsomes or synaptosomes derived from brain; plasma membrane-enriched microsomes, plasma membranes derived as described in Bursten et at. (J. Biol. Chem. 226:20732-20743, 1991 ), or detergent-solubilized microsomes; synaptosomes, and membranes or other cell preparations solubilized using, for example, NP-40, Miranal, SDS or other neutral detergents; and detergent-solubilized, recombinant, or further purified preparations of cell proteins, including the proteins LPAAT and/or PAPH. After incubation for short periods of time, cell lipids are extracted and assayed by […] according to standard procedures. Briefly, lipids are extracted using, for example, chloroform:methanol 2:1 (v/v), and the extracts are then subjected to HPLC as described in Bursten and Harris, Biochemistry 30:6195-6203, 1991. A Rainin® mu-Porasil column is used with a 3:4 hexane:propanol organic carrier and a 1-10% water gradient during the first 10 minutes of separation. Detection of the peaks in the elution pattern is by absorption in the range of ultraviolet which detects isolated double bonds. The relevant peaks of unsaturated PA and DAG are shown in the elution pattern. It is important to note that the assay method permits discrimination between various forms of PA and DAG so that those relevant to the pathway affected by the (R) or (S) compounds of the invention can be measured directly. Confirmation of the nature of the acyl substituents of these components is accomplished using fast-atom bombardment mass spectroscopy. Thus, the relevant unsaturated (non-arachidonic) PA and DAG subspecies may be detected. The time periods employed are 5-60 seconds after stimulation with the primary stimulus, such as a cytokine. This technique permits assessment of the levels of various lipid components as a function of time.

IL-6 = assay: mouse plasma IL-6 ELISA after endotoxin; assay type: in vivo; settings: for Plasma IL-6: LPS + CT-1501R
Description: For ELISA measurements of cytokine levels in plasma, blood was collected by retro-orbital or cardiac puncture of anesthetized mice, immediately centrifuged and the EDTA plasma stored at -70° C. Particulate free plasma was thawed on ice and cytokine levels determined utilizing commercial ELISA assays with normal mouse plasma used to generate standard curves. Murine tumor necrosis factor-α and interleukin-1αkits were purchased from Genzyme (Cambridge, Mass.) and Endogen (Boston, Mass.), respectively. Each data point was an average of two ELISA measurements made from EDTA […] pooled from three mice. The data summarized in Table 3 were compiled from two independent experiments; data from Table 4 and 5 were from single experiments of three mice per data point.
In particular, peak levels observed at 6, 12 and 18 hours post endotoxin were decreased 1.2, 4.3 and 3.2-fold, respectively. Finally, IL-6 measurements were made in a similar manner (Table 6, FIG. 8).

## C[C@@H](O)CCCCn1c(=O)c2c(ncn2C)n(C)c1=O [CT1501R, (R)-1-(5-hydroxyhexyl)-3,7-dimethylxanthine]
stromelysin/PUMP-1
  PUMP-1 activity, % of control levels: 15%
[1]
  potency relative to the S enantiomer: many times more potent than the corresponding S enantiomer
  potency relative to the racemic mixture (M1): two to three time more potent than the racemic mixture
[1]; 3T3 Ras-transformed fibroblasts, IL-1β, FIG. 17
  inhibition of LPAAT enzyme activity: significantly inhibited enzyme activity
IL-6; 3 hours post endotoxin
  fold decrease of plasma IL-6: 1.7 fold
IL-6; 6 hours post endotoxin
  fold decrease of plasma IL-6: 2.0 fold
IL-6; 12 hours post endotoxin
  fold decrease of plasma IL-6: 4.1 fold
IL-6; 0 hours post LPS
  Plasma IL-6: 0 ng/mL
IL-6; 0.17 hours post LPS
  Plasma IL-6: 0.14 ng/mL
IL-6; 0.5 hours post LPS
  Plasma IL-6: 1 ng/mL
IL-6; 1 hour post LPS
  Plasma IL-6: 31.8 ng/mL
IL-6; 3 hours post LPS
  Plasma IL-6: 183 ng/mL
IL-6; 6 hours post LPS
  Plasma IL-6: 121 ng/mL
IL-6; 12 hours post LPS
  Plasma IL-6: 29.6 ng/mL
IL-6; 18 hours post LPS
  Plasma IL-6: 19.8 ng/mL
IL-6; 24 hours post LPS
  Plasma IL-6: 25.6 ng/mL
IL-6; 36 hours post LPS
  Plasma IL-6: 1.64 ng/mL
IL-6; 48 hours post LPS
  Plasma IL-6: 0.4 ng/mL
